Results on nine molecules are retold here after patent USRE47689E1, “Compounds for treating spinal muscular atrophy” (PTC Therapeutics, Inc., priority 2011, dated 2019).

Data set [1] relates to SMN2 minigene (full length SMN2 minigene mRNA containing SMN2 exon 7). Briefly: SMN2 minigene mRNA splicing RT-qPCR assay in cultured cells. The data set is classed as cell-based, human. The conditions noted are these: Homo sapiens, HEK293-H; HEK293H cells stably transfected with SMN2-A minigene; 24 hours; 7-point concentration curve; 1.5-fold relative to vehicle-treated cells; read-out: EC1.5x for production of full length SMN2 mRNA. In outline:
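Read-out: full-length (exon 7-included) SMN2 minigene mRNA by multiplex RT-qPCR with GAPDH, efficiency-corrected (1+E)^−Ct, GAPDH-normalized and divided by vehicle. Stably transfected HEK293H cells, 24 h compound exposure, duplicates per concentration. Value is EC1.5x, reported as star ranges.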

In a further data set the test system is Smn protein. Nature of the data set: Smn protein assay in cultured cells (SMN HTRF). The format is cell-based, human. The conditions noted are these: 48 hours; for maximum fold (Fold) increase of Smn protein: SMA patient fibroblast cells, 7-point concentration data, fold increase relative to vehicle control (SMN HTRF); for EC1.5x (concentration giving 1.5-fold Smn protein increase): SMA Type 1 patient fibroblast cells (GM03813), 7-point concentration curve, SMN HTRF, concentration producing 1.5 times Smn protein vs DMSO vehicle control, read-out: EC1.5x for Smn protein expression. A digest of the protocol:
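Lysates in RIPA with protease inhibitors are incubated overnight at room temperature with HTRF anti-SMN antibodies. EC1.5x is derived from fold increase in ΔF over vehicle.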

With `CCc1cc(C)cn2cc(-c3cc4ccc(N5CCN(C)CC5)cc4oc3=O)nc12` [Compound 340, 3-(8-ethyl-6-methylimidazo[1,2-a]pyridin-2-yl)-7-(4-methylpiperazin-1-yl)-2H-chromen-2-one], the melting point lay in the range of 203 to 210 °C. Besides, the EC (1.5-fold) in data set [1] is 0.3 to 1 µM. The “maximum fold (Fold) increase of Smn protein” value (“maximum fold (Fold) increase” for short) with Smn protein is recorded as “* (maximum fold increase of ≤1.2)”.

The molecule `Cc1cn2cc(-c3cc4ccc(N5C[C@@H](C)N[C@@H](C)C5)cc4oc3=O)cc2cn1` [Compound 584, 7-[(3R,5S)-3,5-dimethylpiperazin-1-yl]-3-(3-methylpyrrolo[1,2-a]pyrazin-7-yl)-2H-chromen-2-one] gave a melting point of 172 to 174 °C. Moreover, the EC (1.5-fold) in data set [1] was less than 0.1 µM. Besides, in the data set with Smn protein, the EC1.5x (concentration giving 1.5-fold Smn protein increase) was less than 300 nM and the “maximum fold (Fold) increase” value is on record as “***** (fold increase >1.65)”.

The molecule `COc1cccc(-c2cc3ccc(N4C[C@@H](C)N[C@@H](C)C4)cc3oc2=O)n1` [Compound 315, 7-[(3R,5S)-3,5-dimethylpiperazin-1-yl]-3-(6-methoxypyridin-2-yl)-2H-chromen-2-one] returned a melting point of 175 to 177 °C. For the same molecule, the EC (1.5-fold) in data set [1] lay within 0.3 to 1 µM. The “maximum fold (Fold) increase” value with Smn protein is “* (maximum fold increase of ≤1.2)”.

The molecule `C[C@@H]1CN(c2ccc3cc(-c4cc5ccccc5s4)c(=O)oc3c2)C[C@H](C)N1` [Compound 408, 3-(1-benzothiophen-2-yl)-7-[(3R,5S)-3,5-dimethylpiperazin-1-yl]-2H-chromen-2-one] gave a melting point of 271 to 273 °C. For the same molecule, the EC (1.5-fold) in data set [1] is 0.3 to 1 µM. Further, the “maximum fold (Fold) increase” value with Smn protein is given as “* (maximum fold increase of ≤1.2)”.

In turn, `CN1CCN(c2ccc3cc(-c4nc5ccccc5s4)c(=O)oc3c2)CC1` [Compound 16, 3-(1,3-benzothiazol-2-yl)-7-(4-methylpiperazin-1-yl)-2H-chromen-2-one] returned a melting point of 259 to 262 °C. In data set [1], the EC (1.5-fold) lay in the range of 0.3 to 1 µM. Also, in the data set on Smn protein, the “maximum fold (Fold) increase” value is “** (fold increase between >1.2 and ≤1.35)”.

As to `CN1CCN(c2ccc3cc(-c4cn5cc(Cl)ccc5n4)c(=O)oc3c2)CC1` [Compound 94, 3-(6-chloroimidazo[1,2-a]pyridin-2-yl)-7-(4-methylpiperazin-1-yl)-2H-chromen-2-one], the melting point was in the range of 290 to 292 °C. The EC (1.5-fold) in data set [1] was 3 to 30 µM. Further, the “maximum fold (Fold) increase” value in the data set with Smn protein is “*** (fold increase between >1.35 and ≤1.5)”.

Regarding `CN1CCCN(c2cc(F)c3cc(-c4cn5cccnc5n4)c(=O)oc3c2)CC1` [Compound 335, 5-fluoro-3-(imidazo[1,2-a]pyrimidin-2-yl)-7-(4-methyl-1,4-diazepan-1-yl)-2H-chromen-2-one], the melting point lay in the range of 300 to 302 °C. Besides, in data set [1], the EC (1.5-fold) is 0.1 to 0.3 µM. In addition, in the data set with Smn protein, the EC1.5x (concentration giving 1.5-fold Smn protein increase) lay in the range of 1000 to 3000 nM; the “maximum fold (Fold) increase” value was “*** (fold increase between >1.35 and ≤1.5)”.

In the case of `O=c1oc2cc(N3CCNCC3)ccc2cc1-c1nc2cc(F)ccc2[nH]1` [Compound 395, 3-(5-fluoro-1H-benzimidazol-2-yl)-7-(piperazin-1-yl)-2H-chromen-2-one], the melting point was in the range of 295 to 300 °C. In data set [1], the EC (1.5-fold) lay in the range of 0.3 to 1 µM. In addition, the “maximum fold (Fold) increase” value in the data set on Smn protein is on record as “* (maximum fold increase of ≤1.2)”.

Molecule `CCN1C[C@@H]2C[C@H]1CN2c1ccc2cc(-c3cn4cc(C)nc(C)c4n3)c(=O)oc2c1` [Compound 793, 3-(6,8-dimethylimidazo[1,2-a]pyrazin-2-yl)-7-[(1S,4S)-5-ethyl-2,5-diazabicyclo[2.2.1]hept-2-yl]-2H-chromen-2-one] had a melting point of 133 to 135 °C. Moreover, the EC (1.5-fold) in data set [1] is less than 0.1 µM. In addition, in the data set on Smn protein, the EC1.5x (concentration giving 1.5-fold Smn protein increase) is less than 300 nM; the “maximum fold (Fold) increase” value is “**** (fold increase between >1.5 and ≤1.65)”.
